Drawing on ChEMBL document CHEMBL5325407, “Structure-based development of potent Plasmodium falciparum M1 and M17 aminopeptidase selective and dual inhibitors via S1'-region optimisation” (Eur J Med Chem, 2023), this text covers Ki and EC50 for 26 molecules.

Assay [1] is described as follows: Inhibition of C-terminal 6-His tagged Plasmodium falciparum M1 aminopeptidase (195 to 1085 residues) expressed in Escherichia coli BL21(DE3) cells using H-Leu-NHMec as substrate assessed as apparent inhibition constant preincubated for 10 mins followed by substrate addition by spectrofluorimetric analysis. As to conditions: read-out: Ki(app).
Assay [2] in a line: Inhibition of C-terminal 6-His tagged Plasmodium falciparum M17 aminopeptidase (85 to 605 residues) expressed in Escherichia coli BL21 (DE3) cells using H-Leu-NHMec as substrate assessed as apparent inhibition constant preincubated for 10 mins followed by substrate addition by spectrofluorimetric analysis. As to conditions: read-out: Ki(app).
For another assay, the system named is Plasmodium falciparum. Put plainly: Antiplasmodial activity against drug-sensitive Plasmodium falciparum 3D7 infected in Red blood cell assessed as growth inhibition measured after 72 hrs by LDH assay. Type of assay: functional, organism-based. As to conditions: 3D7, Erythrocyte.

Structures are written as SMILES.

`O=C(CCc1ccccc1)NC(C(=O)NO)c1ccc(-c2cc(F)c(F)c(F)c2)cc1` (stereo not given): the Ki turned out to be 246 nM in assay [1] and 70 nM in assay [2]. Moreover, in the assay on Plasmodium falciparum, the EC50 is 460 nM.
For the molecule `O=C(COc1ccccc1)NC(C(=O)NO)c1ccc(Br)cc1` (stereo not given), the Ki was over 500 nM in assay [1] and 230 nM in assay [2]. Moreover, the EC50 with Plasmodium falciparum amounted to 620 nM.
On the same counts, the results for `O=C(NC(C(=O)NO)c1ccc(-c2cc(F)c(F)c(F)c2)cc1)C1CCOC1` (stereo not given) are 259 nM, 307 nM and 605 nM.
On the same counts, the results for `O=C(CNc1cccc(F)c1)NC(C(=O)NO)c1ccc(Br)cc1` (stereo not given) are 21 nM, over 500 nM and 135 nM.
Take `CN1CCC1C(=O)NC(C(=O)NO)c1ccc(-c2cc(F)c(F)c(F)c2)cc1` (stereo not given): the Ki in assay [1] and in assay [2] was over 500 nM each time.
For `CN(C)CC(=O)NC(C(=O)NO)c1ccc(-c2cc(F)c(F)c(F)c2)cc1` (stereo not given), the Ki is 185 nM in assay [1] and over 500 nM in assay [2]. In addition, the EC50 with Plasmodium falciparum is 480 nM.
Take `O=C(CNc1ccc(F)cc1)NC(C(=O)NO)c1ccc(-c2cc(F)c(F)c(F)c2)cc1` (stereo not given): the Ki in assay [1] and in assay [2] was over 500 nM in each case.
Regarding `COc1ccc(NCC(=O)NC(C(=O)NO)c2ccc(-c3cc(F)c(F)c(F)c3)cc2)cc1` (stereo not given), the Ki in assay [1] and in assay [2] was over 500 nM throughout.
`CN1CC(C(=O)NC(C(=O)NO)c2ccc(-c3cc(F)c(F)c(F)c3)cc2)C1` (stereo not given): the Ki in assay [1] and in assay [2] was over 500 nM throughout.
Regarding `O=C(CN1CCCCC1)NC(C(=O)NO)c1ccc(-c2cc(F)c(F)c(F)c2)cc1` (stereo not given), the Ki in assay [1] and in assay [2] was over 500 nM in each case.
With `O=C(NC(C(=O)NO)c1ccc(Br)cc1)c1cc2ccccc2[nH]1` (stereo not given), the Ki in assay [1] and in assay [2] was over 500 nM throughout.
Take `CN1CCCC1C(=O)NC(C(=O)NO)c1ccc(-c2cc(F)c(F)c(F)c2)cc1` (stereo not given): the Ki in assay [1] and in assay [2] was over 500 nM throughout.
With `O=C(CNc1cccc(F)c1)NC(C(=O)NO)c1ccc(-c2cc(F)c(F)c(F)c2)cc1` (stereo not given), the Ki in assay [1] and in assay [2] was over 500 nM in each case.
Consider `O=C(CNc1ccc(F)c(F)c1)NC(C(=O)NO)c1ccc(Br)cc1` (stereo not given), for which the Ki in assay [1] and in assay [2] was over 500 nM in each case.
Consider `O=C(NC(C(=O)NO)c1ccc(-c2cc(F)c(F)c(F)c2)cc1)C1CNC1` (stereo not given), for which the Ki in assay [1] and in assay [2] was over 500 nM each time.
In the case of `O=C(NC(C(=O)NO)c1ccc(-c2cc(F)c(F)c(F)c2)cc1)C1CCNC1` (stereo not given), the Ki in assay [1] and in assay [2] was over 500 nM each time.
As for `O=C(CNc1ccc(F)c(F)c1)NC(C(=O)NO)c1ccc(-c2cc(F)c(F)c(F)c2)cc1` (stereo not given), the Ki in assay [1] and in assay [2] was over 500 nM each time.
Regarding `O=C(NC(C(=O)NO)c1ccc(-c2cc(F)c(F)c(F)c2)cc1)C1CCN1` (stereo not given), the Ki in assay [1] and in assay [2] was over 500 nM throughout.
For the molecule `CN1CCC(C(=O)NC(C(=O)NO)c2ccc(-c3cc(F)c(F)c(F)c3)cc2)C1` (stereo not given), the Ki in assay [1] and in assay [2] was over 500 nM throughout.
On to `CN(CC(=O)NC(C(=O)NO)c1ccc(-c2cc(F)c(F)c(F)c2)cc1)c1ccccc1` (stereo not given), for which the Ki in assay [1] and in assay [2] was over 500 nM in each case.
Turning to `CC(C)(C)NC(=O)NC(C(=O)NO)c1ccc(-c2cc(F)c(F)c(F)c2)cc1` (stereo not given), the Ki in assay [1] is over 500 nM; in assay [2] it was 430 nM.
The like results for `COc1cccc(NCC(=O)NC(C(=O)NO)c2ccc(-c3cc(F)c(F)c(F)c3)cc2)c1` (stereo not given) were, in that order, over 500 nM and over 500 nM.
As to `CN(C)C(C)(C)C(=O)NC(C(=O)NO)c1ccc(-c2cc(F)c(F)c(F)c2)cc1` (stereo not given), the Ki in assay [1] and in assay [2] was over 500 nM each time.
As for `COc1ccccc1NCC(=O)NC(C(=O)NO)c1ccc(-c2cc(F)c(F)c(F)c2)cc1` (stereo not given), the Ki in assay [1] and in assay [2] was over 500 nM each time.
Turning to `CCN(CC)CCCC(C)Nc1ccnc2cc(Cl)ccc12` (stereo not given) [CHLOROQUINE], the EC50 with Plasmodium falciparum was determined as 33 nM.
Turning to `CC(C)(C)C(=O)NC(C(=O)NO)c1ccc(-c2cc(F)c(F)c(F)c2)cc1` (stereo not given), the EC50 with Plasmodium falciparum worked out at 340 nM.

The EC50 is the concentration needed to bring the measured effect to its halfway point.
